Laboratory results reported in PMC3401608 (Journal of Medicinal Chemistry, 2012).
pKi: −log10 of the molar value. Where two headings read alike, the source gives them in different places.

Experiments:
[1] = target: human cloned 5-HT6 receptors (Homo sapiens, UniProt P50406); assay: 5-HT6R radioligand competition binding assays
postmenopausal women = details: 120 mg/day, but not 60 mg/day; cited from earlier work

Sequence of human cloned 5-HT6 receptors (P50406 whole entry): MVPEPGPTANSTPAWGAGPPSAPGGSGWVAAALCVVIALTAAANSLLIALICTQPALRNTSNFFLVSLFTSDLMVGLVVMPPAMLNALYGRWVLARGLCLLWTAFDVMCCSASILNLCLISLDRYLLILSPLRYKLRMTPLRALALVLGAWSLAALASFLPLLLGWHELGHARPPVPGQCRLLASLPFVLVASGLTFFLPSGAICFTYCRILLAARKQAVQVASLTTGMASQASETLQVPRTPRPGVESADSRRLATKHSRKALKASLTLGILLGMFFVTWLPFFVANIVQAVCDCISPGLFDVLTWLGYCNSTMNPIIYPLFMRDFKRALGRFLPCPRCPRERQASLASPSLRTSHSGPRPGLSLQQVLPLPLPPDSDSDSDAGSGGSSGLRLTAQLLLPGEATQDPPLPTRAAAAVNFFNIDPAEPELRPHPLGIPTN

| pKi [1] | pKi ([1]; 5-HT6R, Table 6, unit inferred) | Compound | Risk of cognitive impairment (postmenopausal women) |
| --- | --- | --- | --- |
| < 5.00 | < 5.00 | CC(NCCC(c1ccccc1)c1ccccc1)c1ccccc1 (stereo not drawn) [Compound 5] | – |
| – | < 5.00 | O=c1cc(N2CCOCC2)oc2c(-c3ccccc3)cccc12 [Compound 7] | – |
| < 5.00 | < 5.00 | COc1ccccc1N1CCN(CCCCNC(=O)c2ccc3ccccc3c2)CC1 [Compound 9] | – |
| – | – | O=C(c1ccc(OCCN2CCCCC2)cc1)c1c(-c2ccc(O)cc2)sc2cc(O)ccc12 [Compound 10, raloxifene] | reduced risk of cognitive impairment |
